Reference: patent US6706880B2 (Research Triangle Institute, priority 1990, dated 2004)
Counter-ions that a name gives are not always drawn. Like-named read-outs stand apart in the source and are kept apart here.

Tests used:
[1] = target: dopamine transporter (UniProt P23977); format: binding
Text: (§1) Illustrative in vitro assays for binding are described in Boja et al Ann. NY Acad. Sci. 654:282-291 (1992), which is incorporated herein by reference in its entirety. […] Alternatively, the compounds may be analyzed by their ability to inhibit reuptake of a labelled neurotransmitter in a sample, in particular, in synaptosomes.

[2] = tested on: dopamine transporter; format: binding; details: ratio of IC50 values, Table II
Text: as §1

[3] = target: T1, serotonin transporter (Rattus norvegicus, UniProt P31652); test: Inhibition of [3H]paroxetine radioligand binding at the serotonin transporter
T1 construct: from tissue
T1 sequence (P31652 whole entry): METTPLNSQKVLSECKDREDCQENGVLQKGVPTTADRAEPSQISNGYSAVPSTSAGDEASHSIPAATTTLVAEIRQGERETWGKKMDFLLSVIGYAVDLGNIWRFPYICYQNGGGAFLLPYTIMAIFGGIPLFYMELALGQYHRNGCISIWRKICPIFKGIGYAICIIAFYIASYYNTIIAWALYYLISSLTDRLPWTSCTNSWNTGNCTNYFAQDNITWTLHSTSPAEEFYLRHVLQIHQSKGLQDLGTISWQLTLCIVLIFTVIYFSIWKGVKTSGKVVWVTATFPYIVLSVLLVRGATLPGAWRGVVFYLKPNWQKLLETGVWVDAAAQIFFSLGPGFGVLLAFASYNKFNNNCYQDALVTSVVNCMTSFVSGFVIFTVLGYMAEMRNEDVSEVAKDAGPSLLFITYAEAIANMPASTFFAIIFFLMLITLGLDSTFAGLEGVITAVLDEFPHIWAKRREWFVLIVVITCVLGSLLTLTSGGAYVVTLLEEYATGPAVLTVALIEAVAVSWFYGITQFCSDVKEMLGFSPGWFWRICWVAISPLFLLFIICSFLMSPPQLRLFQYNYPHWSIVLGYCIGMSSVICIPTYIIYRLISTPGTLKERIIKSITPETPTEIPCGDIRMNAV
Text: as §1

[4] = target: norepinephrine transporter (UniProt Q9WTR4); test: Inhibition of [3H]nisoxetine radioligand binding at the norepinephrine transporter
Text: as §1

[5] = read-out: DA IC50 for inhibition of radioligand binding, DA=[3H]WIN 35,428
[6] = 5-HT=[3H] paroxetine, read-out: 5-HT IC50 for inhibition of radioligand binding
[7] = read-out: NEN IC50 for inhibition of radioligand binding, NEN=[3H] nisoxetine
[8] = 5-HT IC50 for inhibition of radioligand binding, 5-HT=[3H] paroxetine
[9] = read-out: IC50 DA [3H]-WIN 35,428, Table IV
[10] = IC50 5-HT [3H]-paroxetine, Table IV
[11] = read-out: IC50 NE [3H]-nisoxetine, Table IV
[12] = NEN=[3H] nisoxetine, read-out: NEN IC50 for inhibition of radioligand binding
[13] = read-out: IC50 DA [3H] WIN 35,428, Table III
[14] = read-out: IC50 NE [3H] Nisoxetine, Table III

Compound | IC50 [1, 5] | IC50 [4, 7] | IC50 [3, 8] | other results
Cc1ccc([C@H]2C[C@@H]3CC[C@H]([C@H]2c2nn[nH]n2)N3C)cc1 [RTI-157, 3β-(4-Methylphenyl)-tropane-2β-tetrazole Hydrochloride] | – | – | – | IC50 ([1]; read-out: IC50 DA [3H]-WIN 35,428, Table II): 1560 nM; 5-HT/DA Ratio [2]: 28; NE/DA Ratio [2]: 21; IC50 ([3]; IC50 5-HT [3H]-paroxatine, Table II): 43600 nM; IC50 ([4]; read-out: IC50 NE [3H]-nisoxetine, Table II): 32500 nM
Cc1ccc(OC(=O)C2C(c3ccc(Cl)cc3)CC3CCC2N3C)cc1 (stereo not shown) [RTI-4229-206] | 27.4 nM | 1280 nM | – | IC50 [3, 6]: 1200 nM
CN1C2CCC1C(C(=O)N1CCCCOCC1)C(c1ccc(Cl)cc1)C2 (stereo not shown) [RTI-4229-214] | 2.9 nM | 8550 nM | 88800 nM | –
C=C(C)C1C(c2ccc(Cl)cc2)CC2CCC1N2C (stereo not shown) [RTI-4229-230] | 1.26 nM | 141 nM | 57.4 nM | IC50 [1, 9]: 1.28 ± 0.17 nM; IC50 [3, 10]: 57 ± 50 nM; IC50 [4, 11]: 141 ± 18 nM
Cc1ccc(C2CC3CCC(C2C(C)C)N3C)cc1 (stereo not shown) [RTI-4229-239] | 0.61 nM | 35.6 nM | 114 nM | IC50 [1, 9]: 0.61 ± 0.07 nM; IC50 [3, 10]: 114 ± 3.69 nM; IC50 [4, 11]: 35.6 ± 2.57 nM
CC(C)C1C(c2ccc(Cl)cc2)CC2CCC1N2C (stereo not shown) [RTI-4229-240] | 1.38 nM | 84.5 nM | 38.4 nM | IC50 [1, 9]: 1.38 ± 0.03 nM; IC50 [3, 10]: 38.4 ± 2.31 nM; IC50 [4, 11]: 84.5 ± 3.09 nM
COC(=O)CC1C(c2ccc(C)cc2)CC2CCC1N2C (stereo not shown) [RTI-4229-241] | 1.02 nM | 124 nM | 618 nM | IC50 [1, 9]: 1.02 ± 0.06 nM; IC50 [3, 10]: 618 ± 28 nM; IC50 [4, 11]: 124 ± 3.56 nM
COC(=O)C1CN2C3CCC2C(C1=O)C(c1ccc(Cl)cc1)C3 (stereo not shown) [RTI-4229-242] | – | – | 227 nM | IC50 ([1]; DA=[3H]WIN 35,428, read-out: DA IC50 for inhibition of radioligand binding): 7.57 nM; IC50 [4, 12]: 510 nM
O=C1CCN2C3CCC2C1C(c1ccc(Cl)cc1)C3 (stereo not shown) [RTI-4229-243] | 129 nM | – | 156 nM | IC50 [4, 12]: 540 nM
CCOC(=O)CN1C2CCC1C(C(=O)OC)C(c1ccc(Cl)cc1)C2 (stereo not shown) [RTI-4229-251] | 1.93 nM | 114 nM | 10.1 nM | –
COC(=O)CCN1C2CCC1C(C(=O)OC)C(c1ccc(Cl)cc1)C2 (stereo not shown) [RTI-4229-252] | 2.56 nM | 125 nM | 35.2 nM | –
Fc1ccc(C2CC3CCC(N3)C2COc2ccc3c(c2)OCO3)cc1 (stereo not shown) [RTI-4229-274] | 3.96 nM | 14.4 nM | 5.62 nM | –
CN1C2CCC1C(C(=O)Oc1ccccc1)C(c1ccc([N+](=O)[O-])cc1)C2 (stereo not shown) [RTI-4229-277] | 5.94 nM | 5700 nM | 2910 nM | –
COC(=O)C1C2CCC(CC1c1ccc(C)c(I)c1)N2 (stereo not shown) [RTI-4229-279] | 5.96 nM | 74.3 nM | 1.06 nM | IC50 [1, 13]: 5.98 ± 0.48 nM; IC50 ([3]; IC50 5-HT [3H] Paroxetine, Table III): 1.06 ± 0.39 nM; IC50 [4, 14]: 74.3 ± 3.8 nM
COC(=O)C1C(c2ccc(C)c(I)c2)CC2CCC1N2C (stereo not shown) [RTI-4229-280] | 3.12 nM | 484 nM | 6.81 nM | –
CC#Cc1ccc(C2CC3CCC(C2C(=O)OC)N3C)cc1 (stereo not shown) [RTI-4229-281] | 2.37 nM | 820 nM | – | IC50 [3, 6]: 15.7 nM
CCCc1ccc(C2CC3CCC(C2C(=O)OC)N3C)cc1 (stereo not shown) [RTI-4229-282] | 68.5 nM | 3920 nM | – | IC50 [3, 6]: 70.4 nM
C=C(C)c1ccc(C2CC3CCC(C2C(=O)OC)N3C)cc1 (stereo not shown) [RTI-4229-283] | 14.3 nM | 3130 nM | – | IC50 [3, 6]: 3.13 nM
CCc1ccc(C2CC3CCC(C2C(=O)OC)N3C)cc1 (stereo not shown) [RTI-4229-287] | 325 nM | 17800 nM | 1690 nM | –
CCc1ccc(C2CC3CCC(C2C(=O)OC)N3C)cc1I (stereo not shown) [RTI-4229-295] | 21.3 nM | 1350 nM | 2.96 nM | –

Compound | IC50 [1, 5] | IC50 [4, 7] | IC50 [3, 8] | other results
C/C=C/c1ccc(C2CC3CCC(C2C(=O)OC)N3C)cc1 (stereo not shown) [RTI-4229-296] | 5.29 nM | 1590 nM | – | IC50 [3, 6]: 11.4 nM
COC(=O)[C@H]1[C@@H](c2ccc(C#Cc3ccccc3)cc2)C[C@@H]2CC[C@H]1N2C [RTI-4229-298] | 3.7 nM | 347 nM | 46.8 nM | –
C/C=C\c1ccc(C2C[C@H]3CCC(C2C(=O)OC)N3C)cc1 (stereo partly shown) [RTI-4229-304] | 15 nM | 2800 nM | 7.09 nM | –
COC(=O)C1C2CCC(CC1c1ccc(C)cc1)N2 (stereo not shown) [RTI-4229-305] | 1.24 nM | 21.8 nM | 1.59 nM | –
CCC#Cc1ccc(C2CC3CCC(N3)C2C(=O)OC)cc1 (stereo not shown) [RTI-4229-307] | 6.11 nM | 116 nM | 3.16 nM | –
C=Cc1ccc(C2CC3CCC(N3)C2C(=O)OC)cc1 (stereo not shown) [RTI-4229-309] | 1.73 nM | 14.9 nM | – | IC50 [3, 6]: 2.25 nM
COC(=O)[C@@H]1C2CCC(C[C@@H]1c1ccc3ccccc3c1)N2C (stereo partly shown) [RTI-4229-318] | 0.51 nM | 21.1 nM | 0.8 nM | –
COC(=O)C1C(c2ccc3ccccc3c2)CC2CCC1N2C (stereo not shown) [RTI-4229-319] | 1.1 nM | 70.2 nM | 11.4 nM | –
CCc1cc([C@@H]2C3CCC(C[C@@H]2c2ccc(Cl)cc2)N3C)on1 (stereo partly shown) [RTI-4229-334] | 0.5 nM | 120 nM | 3090 nM | –
CC(C)c1cc([C@@H]2C3CCC(C[C@@H]2c2ccc(Cl)cc2)N3C)on1 (stereo partly shown) [RTI-4229-335] | 1.19 nM | 954 nM | 2320 nM | –
Cc1ccc(-c2cc([C@@H]3C4CCC(C[C@@H]3c3ccc(Cl)cc3)N4C)on2)cc1 (stereo partly shown) [RTI-4229-336] | 4.09 nM | 1710 nM | 5740 nM | –
CCc1ccc(C2CC3CCC(N3)C2C(=O)OCc2ccccc2)cc1 (stereo not shown) [RTI-4229-338] | 1100 nM | 3370 nM | 7.41 nM | –
CN1C2CCC1[C@@H](c1cc(-c3ccc(Cl)cc3)no1)[C@@H](c1ccc(Cl)cc1)C2 (stereo partly shown) [RTI-4229-345] | 6.42 nM | 5290 nM | > 76000 nM | –
COc1ccc(-c2cc([C@@H]3C4CCC(C[C@@H]3c3ccc(Cl)cc3)N4C)on2)cc1 (stereo partly shown) [RTI-4229-346] | 1.57 nM | 762 nM | 5880 nM | –
CN1C2CCC1[C@@H](c1cc(-c3ccc(F)cc3)no1)[C@@H](c1ccc(Cl)cc1)C2 (stereo partly shown) [RTI-4229-347] | 1.86 nM | 918 nM | 7260 nM | –
CN1C2CCC1C(c1ccccc1)C(c1ccccc1)C2 (stereo not shown) [RTI-4229-348] | 28.2 nM | 2670 nM | – | IC50 [3, 6]: 34700 nM
COC(=O)C1C(c2ccc(I)cc2)CC2CCC1N2C (stereo not shown) [RTI-4229-352] | 2.86 nM | 52.4 nM | – | IC50 [3, 6]: 64.9 nM
CCc1ccc(C2CC3CCC(N3)C2C(=O)OC)cc1I (stereo not shown) [RTI-4229-353] | 331 nM | 148 nM | – | IC50 [1, 13]: 331 ± 17 nM; IC50 [3, 6]: 0.69 nM; potency at the serotonin site ([3]; in words): highly potent; selectivity relative to the dopamine and norepinephrine sites ([3]; in words): selective; IC50 ([3]; read-out: IC50 5-HT [3H] Paroxetine, Table III): 0.69 ± 0.07 nM; IC50 [4, 14]: 148 ± 9.2 nM
Cc1ccc(C2CC3CCC(C2c2ccccc2)N3C)cc1 (stereo not shown) [RTI-4229-422] | 1.96 nM | 6090 nM | 1100 nM | –
